Measurements as given in ChEMBL document CHEMBL6096736, “Development of a Highly Selective Ferroptosis Inducer Targeting GPX4 with 2-Ethynylthiazole-4-carboxamide as Electrophilic Warhead” (J Med Chem, 2025).
The source made the active and inactive calls. No cut-off for these calls is given here.

Experiments:
[1] = test system: HT-1080; test: Induction of ferroptosis in human HT-1080 cells assessed as increase in cellular MDA level at 0.1 uM incubated for 6 hrs; type: functional, cell-based
[2] = test system: HT-1080; test: Induction of morphological changes in human HT-1080 cells assessed as […] of mitochondria cristas by TEM analysis; type: functional, cell-based
[3] = test system: HT-1080; test: Induction of ferroptosis in human HT-1080 cells assessed as increase in cellular LPO level at 0.1 uM incubated for 3 hrs by BIODPY-C11 probe based flow cytometry analysis; type: functional, cell-based
[4] = test system: HT-1080; test: Cytotoxicity against human HT-1080 cells assessed as cell viability incubated for 24 hrs by CCK-8 assay; conditions: HT-1080, 24 h
[5] = Selectivity index, ratio of IC50 for cytotoxicity against human HT-1080 cells assessed as cell viability incubated for 24 hrs by CCK-8 assay to IC50 for induction of ferroptosis in human HT-1080 cells assessed as reduction in cell viability incubated for 24 hrs […] by CCK-8 assay; type: functional
[6] = test system: HT-1080; test: Induction of morphological changes in human HT-1080 cells assessed as appearance of round shaped mitochondria by TEM analysis; type: functional, cell-based
[7] = target: T1, Phospholipid hydroperoxide glutathione peroxidase GPX4 (Homo sapiens, UniProt P36969); test: Binding affinity to human GPX4 assessed as dissociation constant by MST assay
T1 sequence (P36969 whole entry): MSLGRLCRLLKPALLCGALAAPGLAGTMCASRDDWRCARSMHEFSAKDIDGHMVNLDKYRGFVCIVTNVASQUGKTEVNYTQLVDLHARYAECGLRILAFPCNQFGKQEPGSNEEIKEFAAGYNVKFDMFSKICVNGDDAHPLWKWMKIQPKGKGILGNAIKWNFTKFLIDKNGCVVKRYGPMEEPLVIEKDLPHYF

[8] = test system: HT-1080; test: Induction of ferroptosis in human HT-1080 cells assessed as increase in cellular ROS level at 0.1 uM incubated for 3 hrs by DCFH-DA staining based flow cytometry analysis; type: functional, cell-based
[9] = test system: HT-1080; test: Induction of ferroptosis in human HT-1080 cells assessed as reduction in cell viability incubated for 24 hrs in presence of Fer-1 by CCK-8 assay; conditions: HT-1080, 24 h
[10] = Clearance in male Sprague-Dawley rat at 2 mg/kg, iv measured upto 36 hrs by LC-MS/MS analysis; type: ADME, organism-based; conditions: in vivo
[11] = Clearance in male Sprague-Dawley rat at 20 mg/kg, po measured upto 36 hrs by LC-MS/MS analysis; type: ADME, organism-based; conditions: in vivo
[12] = Half life in male Sprague-Dawley rat at 2 mg/kg, iv measured upto 36 hrs by LC-MS/MS analysis; type: ADME, organism-based; conditions: in vivo
[13] = Acute toxicity in BALB/c mouse implanted with human HT-1080 cells assessed as lung damage at 15 to 30 mg/kg, ip administered for 7 days by H and E staining based analysis; type: organism-based; conditions: in vivo, 168 h, dose 15-30 mg/kg, time 7 day
[14] = test system: HT-1080; test: Antitumor activity against human HT-1080 cells xenografted in BALB/c mouse assessed as reduction in tumor weight at 15 to 30 mg/kg, ip administered for 6 days and measured after 2 weeks; type: functional, organism-based; conditions: dose 15-30 mg/kg, time 20.0 day
[15] = test system: HT-1080; test: Cytotoxicity against human HT-1080 cells assessed as cell survival incubated for 24 hrs by CCK-8 assay; conditions: HT-1080, 24 h
[16] = test system: CAL-27; test: Cytotoxicity against human CAL-27 cells
[17] = Toxicity in BALB/c mouse implanted with human HT-1080 cells assessed as change in body weight at 15 to 30 mg/kg, ip administered for 6 days and measured after 2 weeks; type: organism-based; conditions: in vivo, 480 h, dose 15-30 mg/kg, time 20 day
[18] = test system: HT-1080; test: Antitumor activity against human HT-1080 cells xenografted in BALB/c mouse assessed as tumor growth inhibition at 15 mg/kg, ip administered for 6 days and measured after 2 weeks; type: functional; conditions: HT-1080, 480 h, time 20 day, read-out: TGI
[19] = AUC (0 to t) in male Sprague-Dawley rat at 2 mg/kg, iv measured upto 36 hrs by LC-MS/MS analysis; type: ADME, organism-based; conditions: in vivo
[20] = Acute toxicity in BALB/c mouse implanted with human HT-1080 cells assessed as change in CREA level at 15 to 30 mg/kg, ip administered for 7 days; type: organism-based; conditions: in vivo, 168 h, dose 15-30 mg/kg, time 7 day
[21] = Acute toxicity in BALB/c mouse implanted with human HT-1080 cells assessed as change in UREA level at 15 to 30 mg/kg, ip administered for 7 days; type: organism-based; conditions: in vivo, 168 h, dose 15-30 mg/kg, time 7 day
[22] = Acute toxicity in BALB/c mouse implanted with human HT-1080 cells assessed as kidney damage at 15 to 30 mg/kg, ip administered for 7 days by H and E staining based analysis; type: organism-based; conditions: in vivo, 168 h, dose 15-30 mg/kg, time 7 day
[23] = test system: HT-1080; test: Cytotoxicity against human HT-1080 cells assessed as cell survival incubated for 24 hrs in presence of DFO by CCK-8 assay; conditions: HT-1080, 24 h
[24] = Cytotoxicity against human LO2 cells; type: toxicity, cell-based, L02
[25] = Half life in male Sprague-Dawley rat at 20 mg/kg, po measured upto 36 hrs by LC-MS/MS analysis; type: ADME, organism-based; conditions: in vivo
[26] = test system: HT-1080; test: Cytotoxicity against human HT-1080 cells in presence of Z-VAD-FMK
[27] = Acute toxicity in BALB/c mouse implanted with human HT-1080 cells assessed as change in ALT level at 15 to 30 mg/kg, ip administered for 7 days; type: organism-based; conditions: in vivo, 168 h, dose 15-30 mg/kg, time 7 day
[28] = Cmax in male Sprague-Dawley rat at 20 mg/kg, po measured upto 36 hrs by LC-MS/MS analysis; type: ADME, organism-based; conditions: in vivo
[29] = Acute toxicity in BALB/c mouse implanted with human HT-1080 cells assessed as spleen damage at 15 to 30 mg/kg, ip administered for 7 days by H and E staining based analysis; type: organism-based; conditions: in vivo, 168 h, dose 15-30 mg/kg, time 7 day
[30] = Acute toxicity in BALB/c mouse implanted with human HT-1080 cells assessed as heart damage at 15 to 30 mg/kg, ip administered for 7 days by H and E staining based analysis; type: organism-based; conditions: in vivo, 168 h, dose 15-30 mg/kg, time 7 day
[31] = test system: HT-1080; test: Antitumor activity against human HT-1080 cells xenografted in BALB/c mouse assessed as tumor growth inhibition at 30 mg/kg, ip administered for 6 days and measured after 2 weeks; type: functional; conditions: HT-1080, 480 h, time 20 day, read-out: TGI
[32] = test system: HT-1080; test: Induction of ferroptosis in human HT-1080 cells assessed as increase in cellular MDA level at 0.1 uM incubated for 6 hrs in presence of Fer-1; type: functional, cell-based
[33] = Cmax in male Sprague-Dawley rat at 2 mg/kg, iv measured upto 36 hrs by LC-MS/MS analysis; type: ADME, organism-based; conditions: in vivo
[34] = Acute toxicity in BALB/c mouse implanted with human HT-1080 cells assessed as liver damage at 15 to 30 mg/kg, ip administered for 7 days by H and E staining based analysis; type: organism-based; conditions: in vivo, 168 h, dose 15-30 mg/kg, time 7 day
[35] = test system: MCF7; test: Cytotoxicity against human MCF7 cells
[36] = test system: 4T1; test: Cytotoxicity against mouse 4T1 cells
[37] = Acute toxicity in BALB/c mouse implanted with human HT-1080 cells assessed as change in AST level at 15 to 30 mg/kg, ip administered for 7 days; type: organism-based; conditions: in vivo, 168 h, dose 15-30 mg/kg, time 7 day
[38] = Oral bioavailability in male Sprague-Dawley rat at 20 mg/kg measured upto 36 hrs by LC-MS/MS analysis; type: ADME, organism-based; conditions: in vivo
[39] = Acute toxicity in BALB/c mouse implanted with human HT-1080 cells assessed as change in ALP level at 15 to 30 mg/kg, ip administered for 7 days; type: organism-based; conditions: in vivo, 168 h, dose 15-30 mg/kg, time 7 day
[40] = AUC (0 to t) in male Sprague-Dawley rat at 20 mg/kg, po measured upto 36 hrs by LC-MS/MS analysis; type: ADME, organism-based; conditions: in vivo
[41] = test system: HepG2; test: Cytotoxicity against human HepG2 cells
[42] = test system: HT-1080; test: Induction of ferroptosis in human HT-1080 cells assessed as increase in cellular LPO level at 0.5 uM incubated for 3 hrs by BIODPY-C11 probe based flow cytometry analysis; type: functional, cell-based
[43] = test system: HT-1080; test: Induction of ferroptosis in human HT-1080 cells assessed as increase in cellular ROS level at 0.5 uM incubated for 3 hrs by DCFH-DA staining based flow cytometry analysis; type: functional, cell-based

SMILES: O=C(NCCc1ccccc1)C(c1csc2ccccc12)N(C(=O)CCl)c1ccc(-c2cnco2)cc1 (centres undefined)
- Activity [1]: Active
- Activity [2]: Active
- Activity [3]: Active
- IC50 [4]: 121 nM
- Ratio IC50 [5]: 38
- Activity [6]: Active
- Kd [7]: 24.7 nM
- Activity [8]: Active
- IC50 [9]: 4600 nM

SMILES: C#Cc1nc(C(=O)N(c2ccc(-c3cnco3)cc2)[C@@H](C(=O)NC(C)(C)C)c2csc3ccccc23)cs1
- Activity [1]: Active
- clearance [10]: 282 mL/min/kg
- CL/F [11]: 5670 mL/min/kg
- half-life [12]: 1.05 h
- Activity [13]: Non-toxic
- Activity [14]: Active
- IC50 [15]: 22 nM
- IC50 [16]: 2680 nM
- Activity [2]: Active
- Activity [17]: Non-toxic
- Activity [3]: Active
- inhibition in vivo at 15 mg/kg [18]: 36.5%
- AUC(0-t) at 36 h [19]: 122 ng·h/mL
- Activity [20]: Non-toxic
- IC50 [4]: 3 nM
- Activity [21]: Non-toxic
- Activity [22]: Non-toxic
- Activity [6]: Active
- IC50 [23]: 3950 nM
- IC50 [24]: 5140 nM
- half-life [25]: 2.37 h
- IC50 [26]: 0.2 nM
- Activity [27]: Non-toxic
- Cmax [28]: 20.8 ng/mL
- Activity [29]: Non-toxic
- Activity [30]: Non-toxic
- inhibition in vivo at 30 mg/kg [31]: 49.4%
- Activity [32]: Weak_effect
- Cmax [33]: 271 ng/mL
- Activity [34]: Non-toxic
- IC50 [35]: 451 nM
- IC50 [36]: 89 nM
- Activity [37]: Non-toxic
- bioavailability [38]: 6.67%
- Activity [39]: Non-toxic
- AUC(0-t) at 36 h [40]: 79.4 ng·h/mL
- Activity [8]: Active
- IC50 [9]: 7480 nM
- IC50 [41]: 56 nM

SMILES: C#Cc1nc(C(=O)N(c2ccc(-c3cnco3)cc2)C(C(=O)NC(C)(C)C)c2c[nH]c3ccccc23)cs1 (centres undefined)
- IC50 [4]: 98 nM
- Ratio IC50 [5]: 86
- IC50 [9]: 8420 nM

SMILES: C#Cc1nc(C(=O)N(c2ccc(C(F)(F)F)cc2)C(C(=O)NC(C)(C)C)c2csc3ccccc23)cs1 (centres undefined)
- IC50 [4]: 27 nM
- Ratio IC50 [5]: 311
- IC50 [9]: 8410 nM

SMILES: C#Cc1nc(C(=O)N(c2ccc(-c3cnco3)cc2)C(C(=O)NC(C)(C)C)C2CCCCC2)cs1 (centres undefined)
- IC50 [4]: 354 nM
- Ratio IC50 [5]: 23
- IC50 [9]: 8160 nM

SMILES: C#Cc1nc(C(=O)N(c2ccc(-c3cnco3)cc2)C(C(=O)NC(C)(C)C)c2cccs2)cs1 (centres undefined)
- IC50 [4]: 341 nM
- Ratio IC50 [5]: 19.9
- IC50 [9]: 6790 nM

SMILES: C#Cc1nc(C(=O)N(c2ccc(-c3cnco3)cc2)C(C(=O)NC(C)(C)C)C2=CCCOC2)cs1 (centres undefined)
- IC50 [4]: 415 nM
- Ratio IC50 [5]: 15
- IC50 [9]: 6200 nM

SMILES: C#Cc1nc(C(=O)N(c2ccc(-c3cnco3)cc2)C(C(=O)NC(C)(C)C)c2cccc3ccccc23)cs1 (centres undefined)
- IC50 [4]: 22 nM
- Ratio IC50 [5]: 393
- IC50 [9]: 8650 nM

SMILES: COC(=O)c1ccc([C@H]2c3[nH]c4ccccc4c3C[C@H](C(=O)OC)N2C(=O)CCl)cc1
- Activity [42]: Active
- Activity [43]: Active
- Kd [7]: 43.7 nM
